Data taken from patent US7253286B2, “Nitrogen-containing aromatic derivatives” (Eisai Co., Ltd, priority 2000, dated 2007).

Columns and labels:
[1] = system: Human Umbilical Vein Endothelial Cells (HUVECs); assay: Inhibition against invasive tube formation by vascular endothelial cells in response to stimulation by angiogenic factor mixture; type: cell-based; design: key: the number of tubes formed in the absence of the test substance was designated as +++; scored on the 5-level scale of +++, ++, +, +/−, −; scored on the 5-level scale of +++, ++, +, +/−, −; scored on the 5-level scale of +++, ++, +, +/−, −; − was assigned if absolutely no tubes formed; conditions: HUVEC on fibrin gel, EGF/FGF2/VEGF/HGF/TNF-α mixture, 6th day, MTT staining; for number of tubes formed in the fibrin gel (score) at 0.01 μM: test substance 0.01 μM; for number of tubes formed in the fibrin gel (score) at 0.1 μM: test substance 0.1 μM; for number of tubes formed in the fibrin gel (score) at 1.0 μM: test substance 1.0 μM
Experimental: Inhibition Against Invasive Tube Formation by Vascular Endothelial Cells in Response to Stimulation by Angiogenic Factor Mixture
Human Umbilical Vein Endothelial Cells (HUVECs) were isolated according to a reported method (Shinseikagaku Jikken Koza [New Biochemistry Experiment Lectures], “Saibo Baiyo Gijutsu” [Cell Culturing Techniques], p.197–202), and were cultured in a 5% CO2 incubator (37° C.) using EGM-2 medium (purchased from Clonetics Corp.) until the cells reached confluency. After adding 0.4 ml of bovine fibrinogen (purchased from Sigma Co.) to the inner well of a Transwell culturing plate (purchased from Coster Inc.), it was hardened with 0.7 units/ml of thrombin (purchased from Sigma Co.). The HUVECs were recovered using trypsin-EDTA and then suspended in human endothelial serum free medium basal growth medium (hereinafter abbreviated as SFM, purchased from GIBCO BRL), and 0.4 ml of the cell suspension (1.4×10^5 cells) was seeded onto the hardened fibrin gel and cultured for approximately 4 hours in a 5% CO2 incubator (37° C.). After 4 hours, there was added to the outer chamber of the Transwell 1.5 ml of an SFM solution containing a mixture of angiogenic factors {10 ng/ml EGF (purchased from GIBCO BRL), 30 ng/ml FGF2 (purchased from GIBCO BRL), 75 ng/ml VEGF (purchased from Wako Pure Chemical Industries Co., Ltd.), 50 ng/ml HGF (purchased from R&D Co.) and 7.5 ng/ml TNF-α (purchased from Genzyme Corp.) [The concentrations of the angiogenic factors differed slightly according to the HUVEC lot.]} and a diluted test substance, and culturing was carried out in a 5% CO2 incubator (37° C.). On the 2nd and 4th days after adding the test substance, the medium was exchanged with 1.5 ml of freshly prepared SFM solution containing the angiogenic factor mixture and test substance. Upon aspirating off the culture supernatant in the inner well on the 6th day after the initial addition of the test substance, 0.4 ml of a 3.3 mg/ml MTT solution dissolved in PBS (purchased from Sigma Corp.) was added and culturing was performed for approximately 1 hour in a 5% CO2 incubator (37° C.). The number of tubes formed in the fibrin gel stained with MTT was scored based on microscope observation. Specifically, the number of tubes formed in the absence of the test substance was designated as +++, while − was assigned if absolutely no tubes formed. The number of tubes formed in the presence of the test substance was scored on the 5-level scale of +++, ++, +, +/−, − to evaluate the strength of inhibition of the test substance.

VEGFR2 = biological target: T1, VEGFR2 (Homo sapiens, UniProt P35968); assay: Inhibition against VEGFR2 kinase (receptor tyrosine kinase activity, HTRF method); type: biochemical; conditions: His6-VEGFR2 cytoplasmic domain, biotin-poly(GT) substrate, ATP, 30° C. 10 minutes, read-out: IC50 (concentration required for 50% inhibition of VEGFR2 kinase activity)
T1 construct: coding for the cytoplasmic domain, beginning with lysine 791 and including the termination codon; made in house; host or cells: Sf9 insect cells (baculovirus, pFastBacHis)
Summary of the method: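 Construct: His6-tagged VEGFR2 cytoplasmic domain (from Lys791), expressed in Sf9 cells. Kinase step: biotin-poly(Glu4:Tyr1) substrate, ATP added as 10 μl of 4 μM, Hepes pH 7.4 with Mg2+/Mn2+, 30 °C for 10 min, EDTA stop. Phosphotyrosine product measured by HTRF.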

T1 sequence (P35968 786-1356 limits assumed): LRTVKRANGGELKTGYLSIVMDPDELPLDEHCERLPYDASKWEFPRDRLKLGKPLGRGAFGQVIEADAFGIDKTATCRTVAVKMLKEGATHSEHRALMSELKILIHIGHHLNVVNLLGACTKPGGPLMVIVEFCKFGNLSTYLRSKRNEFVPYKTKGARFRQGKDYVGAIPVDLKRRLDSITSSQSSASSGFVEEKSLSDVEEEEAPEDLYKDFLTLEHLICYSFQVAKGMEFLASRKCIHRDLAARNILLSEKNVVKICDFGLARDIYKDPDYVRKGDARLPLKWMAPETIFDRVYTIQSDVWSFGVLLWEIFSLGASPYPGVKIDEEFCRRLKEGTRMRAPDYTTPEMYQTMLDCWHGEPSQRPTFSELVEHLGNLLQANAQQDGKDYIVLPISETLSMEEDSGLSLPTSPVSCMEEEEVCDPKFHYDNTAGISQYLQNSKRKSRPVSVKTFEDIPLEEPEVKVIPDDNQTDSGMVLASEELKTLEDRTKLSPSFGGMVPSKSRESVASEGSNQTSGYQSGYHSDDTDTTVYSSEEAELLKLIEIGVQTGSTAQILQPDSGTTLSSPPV

IC50 (VEGFR2) [nM]	SMILES	number of tubes formed in the fibrin gel (score) at 0.01 μM [1]	number of tubes formed in the fibrin gel (score) at 0.1 μM [1]	number of tubes formed in the fibrin gel (score) at 1.0 μM [1]
4.6	COc1cc2nccc(Oc3ccc(N(C)C(=O)Nc4ccc(F)cc4)cc3)c2cc1C(N)=O [Example 348]	+/−	−	−
5.5	COCCOc1cc2nccc(Oc3ccc(NC(=O)Nc4nccs4)c(F)c3)c2cc1C#N [Example 25, N-(4-(6-cyano-7-(2-methoxyethoxy)-4-quinolyl)oxy-2-fluorophenyl)-N′-(1,3-thiazol-2-yl)urea]	++	+/−	+/−
